Assay results taken from patent publication US20200289566A1, “COMPOSITIONS FOR IMPROVING CAR-T CELL FUNCTIONALITY AND USE THEREOF” (PROSPECT CHARTERCARE RWMC, LLC D/B/A ROGER WILLIAMS MEDICAL …, priority 2017, published 2020).

Assays:
Format in all cases: cell-based, human
[1] = test system: IL13Rα2-Fc activated CAR-T cells; experiment: Intranuclear β-catenin accumulation by flow cytometry; conditions: 36-48 hours
Procedure: Purified rat anti-human IL13 antibody and allophycocyanin (APC)-conjugated anti-rat antibody was used to measure IL13CAR expression. Anti-human CD3-FITC was used in certain experiments for identifying T cells. For CD4:CD8 analysis of IL13CAR-T cells, anti-human CD4-FITC and anti-human CD8-PE.Cy7 were used in CAR-T cells that were positive for IL13CAR expression. FasL expression and PD-1 expression on activated IL13CAR-T cells was measured by staining with anti-human FasL-FITC (Thermo-Fisher) anti-human PD1-FITC respectively. Anti-human CD127-FITC, anti-human CD62L-PE, Anti-human CCR7-FITC anti-human CD45RO-PE and anti-human CD45RA-PE.Cy7 were used for flow cytometric measurement of T cell memory marker. Respective isotype controls or antibody controls (where applicable) were used to draw positive gates for each experiment. All antibodies were procured from either BD Biosciences or eBisociences. […]
Experiments were conducted to understand the molecular mechanism of GSK3β-inhibition on activated T cell expansion. […] IL13Rα2-Fc activated CAR-T cells were treated with or without SB216763 for 36-48 hours and measured for intra-nuclear accumulation of β-catenin by flow cytometry. […]

[2] = test system: IL13Rα2-Fc activated IL13CAR-T cells; experiment: qPCR of TBX21, PDCD1 and IFNG genes; conditions: normalized to GAPDH
Procedure: Total RNA was isolated from IL13CAR-T cells using the RNeasy Mini Kit according to the manufacturer's protocol (Qiagen). cDNA was prepared from RNA using iScript cDNA Synthesis Kit (Biorad, Carlsbad, Calif.). qPCR was performed targeting IFNG, TBX21, and PDCD1 genes using SyBR Green PCR master Mix (Applied Biosystems). CT values of target genes were normalized to that of housekeeping gene GAPDH, and relative gene expression was calculated using ΔΔCT method.
(§1) GSK3 inhibition reduces PD-1 mediated T cells exhaustion, which is dependent on T-bet expression (Taylor et al., Immunity 44: 274-286. 2016), and GSK3β pathway directly regulates T-bet expression in activated T cells (Verma et al., J Immunol 197: 108-118, 2016). Significant survival advantage of GSK3β inhibition in activated T cells prompted us to study T-bet and PD-1 expression in IL13Rα2-activated IL13CAR-T cells.

[3] = test system: IL13Rα2-Fc activated IL13CAR-T cells; experiment: T cell memory marker expression by flow cytometry; conditions: 7 days
Procedure: (§2) Purified rat anti-human IL13 antibody and allophycocyanin (APC)-conjugated anti-rat antibody was used to measure IL13CAR expression. Anti-human CD3-FITC was used in certain experiments for identifying T cells. For CD4:CD8 analysis of IL13CAR-T cells, anti-human CD4-FITC and anti-human CD8-PE.Cy7 were used in CAR-T cells that were positive for IL13CAR expression. FasL expression and PD-1 expression on activated IL13CAR-T cells was measured by staining with anti-human FasL-FITC (Thermo-Fisher) anti-human PD1-FITC respectively. Anti-human CD127-FITC, anti-human CD62L-PE, Anti-human CCR7-FITC anti-human CD45RO-PE and anti-human CD45RA-PE.Cy7 were used for flow cytometric measurement of T cell memory marker. Respective isotype controls or antibody controls (where applicable) were used to draw positive gates for each experiment. All antibodies were procured from either BD Biosciences or eBisociences. For intranuclear staining of β-catenin localization, nuclear permeabilization of CAR-T cells was achieved using FoxP3 staining buffer (eBioscience-Affymetrix, San Diego, Calif.) and staining with anti-human β-catenin rabbit mAb (Cell Signaling Technologies, Danvers Mass.) and anti-rabbit IgG conjugated with Alexa Fluor (AF) 488 or 647 (Cell Signaling Technologies).
Experiments were conducted to test the effects of SB216763 treatment on memory generation in IL13Rα2-Fc activated IL13CAR-T populations. IL13CAR-T cells were activated with increasing concentrations of IL13Rα2-Fc (0-1 μg/ml) in the presence or absence of SB216763 for 7 days. Cell surface expression of T cell memory markers were measured by flow cytometry. Since memory generation was monitored as a functional derivative of CD8+ T cells, experiments were conducted to additionally measure the intracellular expression of IL7R (CD127) expression as a marker of CD8+ memory CAR-T cell homeostasis.

[4] = test system: IL13Rα2-Fc activated IL13CAR-T cells; experiment: Activated T cell death (ATCD): flow cytometric FasL expression
Procedure: Purified rat anti-human IL13 antibody and allophycocyanin (APC)-conjugated anti-rat antibody was used to measure IL13CAR expression. Anti-human CD3-FITC was used in certain experiments for identifying T cells. For CD4:CD8 analysis of IL13CAR-T cells, anti-human CD4-FITC and anti-human CD8-PE.Cy7 were used in CAR-T cells that were positive for IL13CAR expression. FasL expression and PD-1 expression on activated IL13CAR-T cells was measured by staining with anti-human FasL-FITC (Thermo-Fisher) anti-human PD1-FITC respectively. […]
Untransduced or IL13CAR-T cells (1×10^6) were activated with IL13Rα2-Fc chimera at specific concentrations in 24 well plates, with or without GSK3β inhibitor (SB216763, 20 μM; Sigma, St Louis, Mo.) or added IL2 in the culture medium. […] Long-time survival of IL13CAR-T cells following GSK3β inhibition was measured by flow cytometry using live-dead gating (Sengupta et al., Immunobiology 210: 647-659, 2005). Activated T cell death (ATCD) was measured by flow cytometric reading of FasL expression (FITC; Thermo-Fisher) on activated IL13CAR-T cells.
IL13CAR-T cells (32% CAR+) were cultured for 14 days in the presence of soluble IL13Rα2-Fc (1 μg/ml) and GSK3β inhibitor (SB216763; 20 μM) in RPMI1640 medium supplemented with 10% FBS and antibiotics, with or without added IL2. […] To confirm this phenomenon FasL expression was measured in IL13Rα2-Fc treated CAR-T cells at day 14. […]

IL13CAR-T cells = experiment: CFSE dilution T cell proliferation assay; conditions: 72 hours
Procedure: Carboxyfluorescein succinimidyl ester (CFSE; 0.5 μg/ml; Invitrogen) was used to measure T cell proliferation by flow cytometry.
To further understand the mechanism, CAR-T cells were stained with CFSE and were cultured either unstimulated or treated with IL13Rα2-Fc±SB216763 for 72 hours. CFSE is a fluorescent cell staining dye and can be used to monitor lymphocyte proliferation, both in vitro and in vivo, due to the progressive halving of CFSE fluorescence within daughter cells following each cell division (Lyons et al., Journal of immunological methods 171: 131-137, 1994).

[5] = test system: IL13Rα2-Fc activated IL13CAR-T cells; experiment: T cell survival assay (viability by flow cytometry, live-dead gating, 14 days); conditions: SB216763 20 μM, IL13Rα2-Fc 1 μg/ml, absence of added IL2
Procedure: Untransduced or IL13CAR-T cells (1×10^6) were activated with IL13Rα2-Fc chimera at specific concentrations in 24 well plates, with or without GSK3β inhibitor (SB216763, 20 μM; Sigma, St Louis, Mo.) or added IL2 in the culture medium. IL13CAR-T cell survival assays were performed as described above for 14 days. Long-time survival of IL13CAR-T cells following GSK3β inhibition was measured by flow cytometry using live-dead gating (Sengupta et al., Immunobiology 210: 647-659, 2005). Activated T cell death (ATCD) was measured by flow cytometric reading of FasL expression (FITC; Thermo-Fisher) on activated IL13CAR-T cells.
IL13CAR-T cells (32% CAR+) were cultured for 14 days in the presence of soluble IL13Rα2-Fc (1 μg/ml) and GSK3β inhibitor (SB216763; 20 μM) in RPMI1640 medium supplemented with 10% FBS and antibiotics, with or without added IL2. Cells were harvested at days 1, 4, 7, 10 and 14 and stained for CD3 and IL13CAR expression, and viability of cells were measured by flow cytometry and analyzed for viability as described earlier. […] The loss in viability was rescued by addition of IL2 in culture conditions (FIG. 1A; Top Panel; close squares) or inhibition of GSK3β with SB216763 in absence of added IL2 (FIG. 1A; Bottom Panel; open squares). […] To confirm this phenomenon FasL expression was measured in IL13Rα2-Fc treated CAR-T cells at day 14. […]

[6] = test system: IL13Rα2-activated IL13CAR-T cells; experiment: Flow cytometry of T-bet and PD-1 expression
Procedure: as §2, §1

## Cn1cc(C2=C(c3ccc(Cl)cc3Cl)C(=O)NC2=O)c2ccccc21 [SB216763, 3-(2,4-Dichlorophenyl)-4-(1-methyl-1H-indol-3yl)-1H-pyrrole-2,5-dione]
[1]; SB216763 treated
  nuclear β-catenin MFI: 1618 MFI
[1]; versus untreated activated CAR-T cells
  increased accumulation of β-catenin in the nucleus: 66%
[2]
  decrease in PDCD1 (PD-1) gene expression: 5 fold
  increase in TBX21 (T-bet) gene expression: 90 fold
[3]
  CCR7 expression: no difference
  CD45RA expression: no difference
  CD62L expression: complete inhibition
[3]; IL13Rα2-Fc 0-1 μg/ml
  increase in CD45RO: 4 fold
  increase in CD127: 10 fold
[4]; day 14, SB216763 treated
  frequency of activated CAR-T cells expressing FasL: 25.3%
[4]; day 14, versus activated CAR-T cells not treated with the inhibitor
  reduction of FasL expression: 55%
IL13CAR-T cells
  proliferation of IL13Rα2-Fc activated CAR-T cells: increased proliferation
  proliferation of unstimulated CAR-T cells: no such efforts
[5]
  loss in viability of activated IL13CAR-T cells: rescued
[6]; activated IL13CAR-T cells, GSK3β inhibition
  T-bet expression (FACS): significant upregulation
[6]; activated, GSK3β inhibited
  frequency of PD-1+ IL13CAR-T cells: 17.3%
[6]; versus activated IL13CAR-T cells not treated
  reduction in PD-1 expression: 60%
